Tests used:
Format in all cases: cell-based
CaV2.2 = target: T1, CaV2.2 (Homo sapiens, UniProt Q00975); assay: VIPR optical membrane potential assay with electrical stimulation, CaV2.2; details: Table 9, CaV 2.2 receptors
T1 construct: expressed in transfected cells; host or cells: HEK293
Summary of the method: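 HEK293 cells stably expressing CaV2.2 stained with CC2-DMPE/DiSBAC2(3) voltage-sensitive dyes (10 μM final CC2-DMPE, 30 min, RT), then compound added and cells electrically stimulated for 3-5 s. Read-out: background-subtracted 460/580 nm emission ratio; response R=Rf/Ri (post- vs pre-stimulus ratio); antagonism seen as reduced response.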

NaV1.3 = target: T2, NaV1.3 (Homo sapiens, UniProt Q9NY46); assay: VIPR optical membrane potential assay with electrical stimulation, NaV1.3; details: Table 9, NaV 1.3 receptors
T2 construct: expressed in transfected cells; host or cells: HEK293
Summary of the method: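 HEK293 cells stably expressing NaV1.3, stained with CC2-DMPE (10 μM final) then DiSBAC2(3) with ABSC1, 30 min each at RT; compounds added with oxonol. Electrical stimulation for 3 s; 460/580 nm background-subtracted emission ratio Rf/Ri, normalised to tetracaine (positive) and untreated (negative) controls.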

NaV1.8 = NaV1.8 (Homo sapiens, UniProt Q9Y5Y9); assay: VIPR optical membrane potential assay, NaV1.8 (other subtypes in an analogous mode); details: Table 9, NaV 1.8 receptors
Description: Antagonist properties of test compounds were assessed as follows. Cells expressing the NaV of interest were placed into microtiter plates. After an incubation period, the cells were stained with fluorescent dyes sensitive to the transmembrane potential. The test compounds were added to the microtiter plate. The cells were stimulated with either chemical or electrical means to evoke a NaV dependent membrane potential change from unblocked channels, which was detected and measured with trans-membrane potential-sensitive dyes. Antagonists were detected as a decreased membrane potential response to the stimulus.
24 hours before the assay on VIPR, CHO cells endogenously expressing a NaV 1.2 type voltage-gated NaV are seeded in 96-well poly-lysine coated plates at 60,000 cells per well. […] Plates are incubated in the dark for 30 minutes at room temperature. • 4) While the cells are being stained with coumarin, a […] oxonol solution in BS#2 is prepared. […] As before, the residual volume should be 40 μL. • 6) Upon removing the bath, the cells are loaded with 80 μL of the DiSBAC2(3) solution, after which test compound, dissolved in DMSO, is added to achieve the desired test concentration to each well from the drug addition plate and mixed thoroughly. The volume in the well should be roughly 121 μL. The cells are then incubated for 20-30 minutes. • 7) Once the incubation is complete, the cells are ready to be assayed on VIPR® with a sodium addback protocol. 120 μL of Bath solution #1 is added to stimulate the NaV dependent depolarization. […] tetracaine was used as an antagonist positive control for block of the NaV channel. Analysis of VIPR® Data:
The following is an example of how NaV1.3 inhibition activity is measured using the optical membrane potential method#2. Other subtypes are performed in an analogous mode in a cell line expressing the NaV of interest.

T2 sequence (Q9NY46 whole entry): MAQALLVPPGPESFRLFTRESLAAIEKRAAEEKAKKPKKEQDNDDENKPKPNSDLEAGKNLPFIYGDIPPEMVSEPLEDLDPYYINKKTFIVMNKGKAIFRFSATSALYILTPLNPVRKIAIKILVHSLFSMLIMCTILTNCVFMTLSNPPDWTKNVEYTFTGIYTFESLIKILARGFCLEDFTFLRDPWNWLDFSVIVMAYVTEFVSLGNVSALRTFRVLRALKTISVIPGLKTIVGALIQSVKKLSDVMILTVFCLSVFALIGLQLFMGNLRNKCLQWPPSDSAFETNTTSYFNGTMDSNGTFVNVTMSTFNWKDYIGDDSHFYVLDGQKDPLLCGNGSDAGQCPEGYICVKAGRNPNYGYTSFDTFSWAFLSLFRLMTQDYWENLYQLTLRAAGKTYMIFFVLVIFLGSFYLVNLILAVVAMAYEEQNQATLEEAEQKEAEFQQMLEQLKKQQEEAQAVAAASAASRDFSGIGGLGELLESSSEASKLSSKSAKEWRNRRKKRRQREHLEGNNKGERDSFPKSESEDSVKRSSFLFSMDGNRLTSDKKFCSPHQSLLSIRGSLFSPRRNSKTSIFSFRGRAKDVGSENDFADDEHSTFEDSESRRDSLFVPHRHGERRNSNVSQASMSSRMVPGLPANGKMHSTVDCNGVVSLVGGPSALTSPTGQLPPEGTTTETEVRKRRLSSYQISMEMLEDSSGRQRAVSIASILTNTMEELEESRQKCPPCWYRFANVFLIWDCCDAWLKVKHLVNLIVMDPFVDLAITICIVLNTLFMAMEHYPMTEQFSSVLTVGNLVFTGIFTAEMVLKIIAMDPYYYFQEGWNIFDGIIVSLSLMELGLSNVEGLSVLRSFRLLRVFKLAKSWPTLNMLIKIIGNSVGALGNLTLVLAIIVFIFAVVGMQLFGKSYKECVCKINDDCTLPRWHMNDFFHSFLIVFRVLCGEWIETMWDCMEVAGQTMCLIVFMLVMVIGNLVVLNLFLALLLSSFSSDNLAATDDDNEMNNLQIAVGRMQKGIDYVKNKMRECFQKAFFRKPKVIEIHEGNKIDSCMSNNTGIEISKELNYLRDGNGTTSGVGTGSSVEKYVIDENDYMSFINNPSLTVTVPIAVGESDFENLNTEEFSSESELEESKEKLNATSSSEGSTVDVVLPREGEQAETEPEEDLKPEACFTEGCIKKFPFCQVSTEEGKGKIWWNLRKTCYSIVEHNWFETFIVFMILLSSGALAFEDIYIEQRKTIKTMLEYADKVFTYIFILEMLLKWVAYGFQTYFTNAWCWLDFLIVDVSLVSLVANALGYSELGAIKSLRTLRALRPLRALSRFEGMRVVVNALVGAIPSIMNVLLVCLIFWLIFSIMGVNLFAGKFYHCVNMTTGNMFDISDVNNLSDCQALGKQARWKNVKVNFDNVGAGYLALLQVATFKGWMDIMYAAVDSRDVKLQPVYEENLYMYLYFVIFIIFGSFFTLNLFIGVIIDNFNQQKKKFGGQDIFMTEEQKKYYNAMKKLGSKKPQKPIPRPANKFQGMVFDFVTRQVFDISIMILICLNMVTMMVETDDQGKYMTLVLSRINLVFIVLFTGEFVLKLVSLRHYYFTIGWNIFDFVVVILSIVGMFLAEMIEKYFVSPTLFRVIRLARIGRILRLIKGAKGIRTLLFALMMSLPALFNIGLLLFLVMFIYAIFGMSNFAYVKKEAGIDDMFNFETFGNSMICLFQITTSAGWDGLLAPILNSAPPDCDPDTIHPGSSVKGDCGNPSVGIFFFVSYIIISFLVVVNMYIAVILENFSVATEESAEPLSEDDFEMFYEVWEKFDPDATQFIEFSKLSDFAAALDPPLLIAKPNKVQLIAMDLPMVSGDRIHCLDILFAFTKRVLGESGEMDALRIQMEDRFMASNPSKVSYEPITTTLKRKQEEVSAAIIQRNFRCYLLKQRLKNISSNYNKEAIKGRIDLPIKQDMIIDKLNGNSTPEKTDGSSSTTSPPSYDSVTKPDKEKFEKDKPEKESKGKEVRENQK
Sequence of NaV1.8 (Q9Y5Y9 whole entry): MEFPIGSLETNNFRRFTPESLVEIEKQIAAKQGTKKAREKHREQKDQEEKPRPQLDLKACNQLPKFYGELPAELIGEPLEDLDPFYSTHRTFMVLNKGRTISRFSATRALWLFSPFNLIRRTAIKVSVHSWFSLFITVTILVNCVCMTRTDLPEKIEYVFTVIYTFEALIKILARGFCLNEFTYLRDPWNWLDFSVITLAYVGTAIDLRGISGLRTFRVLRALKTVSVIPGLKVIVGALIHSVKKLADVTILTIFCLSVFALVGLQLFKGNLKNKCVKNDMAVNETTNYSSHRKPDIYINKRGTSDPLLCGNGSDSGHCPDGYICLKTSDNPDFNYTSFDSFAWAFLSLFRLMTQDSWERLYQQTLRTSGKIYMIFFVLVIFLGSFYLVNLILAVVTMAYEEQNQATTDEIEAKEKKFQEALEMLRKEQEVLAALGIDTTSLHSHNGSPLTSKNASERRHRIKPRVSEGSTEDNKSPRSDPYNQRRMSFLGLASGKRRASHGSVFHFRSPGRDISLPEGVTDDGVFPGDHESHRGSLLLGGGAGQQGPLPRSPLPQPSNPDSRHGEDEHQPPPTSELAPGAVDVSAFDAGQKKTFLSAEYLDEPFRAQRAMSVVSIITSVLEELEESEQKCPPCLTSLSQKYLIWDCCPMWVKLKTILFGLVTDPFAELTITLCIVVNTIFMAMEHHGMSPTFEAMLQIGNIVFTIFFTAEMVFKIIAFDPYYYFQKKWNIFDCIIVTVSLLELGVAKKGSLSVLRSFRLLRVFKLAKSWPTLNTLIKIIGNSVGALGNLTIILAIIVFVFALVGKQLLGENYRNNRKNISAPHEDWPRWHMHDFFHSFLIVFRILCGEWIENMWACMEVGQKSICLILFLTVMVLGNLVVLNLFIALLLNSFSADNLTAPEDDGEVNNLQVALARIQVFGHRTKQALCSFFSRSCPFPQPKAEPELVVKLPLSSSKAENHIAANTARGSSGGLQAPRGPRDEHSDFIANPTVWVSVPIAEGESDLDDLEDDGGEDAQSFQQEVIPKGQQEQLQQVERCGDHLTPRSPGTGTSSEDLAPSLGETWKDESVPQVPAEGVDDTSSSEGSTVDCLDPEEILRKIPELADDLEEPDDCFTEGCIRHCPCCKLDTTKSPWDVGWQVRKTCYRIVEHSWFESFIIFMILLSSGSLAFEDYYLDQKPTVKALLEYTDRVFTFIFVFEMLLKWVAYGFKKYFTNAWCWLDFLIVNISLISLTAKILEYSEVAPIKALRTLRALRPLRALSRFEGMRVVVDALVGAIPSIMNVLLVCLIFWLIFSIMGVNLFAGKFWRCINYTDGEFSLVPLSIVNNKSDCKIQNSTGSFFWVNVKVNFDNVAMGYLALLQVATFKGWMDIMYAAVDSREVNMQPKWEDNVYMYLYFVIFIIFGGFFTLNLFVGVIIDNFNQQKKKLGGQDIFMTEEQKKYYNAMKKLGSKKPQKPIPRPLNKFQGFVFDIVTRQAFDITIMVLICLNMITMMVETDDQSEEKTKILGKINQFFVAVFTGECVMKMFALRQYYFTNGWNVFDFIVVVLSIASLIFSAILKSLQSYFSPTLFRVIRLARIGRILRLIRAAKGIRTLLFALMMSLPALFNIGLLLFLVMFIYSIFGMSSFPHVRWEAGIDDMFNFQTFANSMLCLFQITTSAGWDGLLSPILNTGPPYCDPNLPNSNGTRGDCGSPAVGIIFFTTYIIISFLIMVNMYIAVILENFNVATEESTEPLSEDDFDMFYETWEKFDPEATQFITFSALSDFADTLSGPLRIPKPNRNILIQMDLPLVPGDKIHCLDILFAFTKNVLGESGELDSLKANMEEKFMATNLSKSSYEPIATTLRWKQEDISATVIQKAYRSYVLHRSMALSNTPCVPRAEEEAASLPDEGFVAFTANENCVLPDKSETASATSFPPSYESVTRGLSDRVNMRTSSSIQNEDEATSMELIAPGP

Structure (SMILES)	IC50 (CaV2.2) [µM]	IC50 (NaV1.3) [µM]	IC50 (NaV1.8) [µM]
CN(C)CCN(Cc1ccccc1)C(=O)c1cnc(N2CCOCC2)nc1-c1ccccc1F [compound 28]	> 10	> 10	> 10
CC(C)N(C(=O)c1cnc(N2CCOCC2)nc1-c1ccccc1F)C1CCSC1 (stereo not drawn) [compound 172]	> 10	> 10	> 10
COc1cccc(N(C(=O)c2cnc(N3CCOCC3)nc2-c2ccccc2F)C2CCOCC2)c1 [compound 197]	> 10	> 10	> 10
Cc1nc(N2CCOCC2)nc(-c2ccccc2F)c1C(=O)N(c1ccccc1)C(C)C [compound 25]	> 10	> 10	> 10
CC(C)N(C(=O)c1cnc(N2CCC3CCCCC3C2)nc1-c1ccccc1F)C1CCSC1 (stereo not drawn) [compound 141]	2 to 10	> 10	> 10
CC(C)N(C(=O)c1cnc(N2CCCCC2)nc1-c1ccccc1Cl)C1CCSC1 (stereo not drawn) [compound 155]	2 to 10	> 10	> 10
CC(C)N(C(=O)c1cnc(N2CCCCC2)nc1-c1ccccc1F)c1cccc(C#N)c1 [compound 125]	2 to 10	> 10	> 10
CC(C)N(Cc1ccc(C(C)(C)C)cc1)C(=O)c1cnc(N2CCCCC2)nc1-c1ccccc1Cl [compound 119]	2 to 10	> 10	> 10
COc1cccc(N(C(=O)c2cnc(N3CCN(C)CC3)nc2-c2ccccc2F)C(C)C)c1 [compound 87]	> 10	> 10	> 10
CC(C)N(Cc1ccccc1)C(=O)c1cnc(Nc2nc3ccccc3[nH]2)nc1-c1ccccc1F [compound 106]	> 10	> 10	> 10
CC(C)N(Cc1ccccc1)C(=O)c1cnc(N2CCC3CCCCC3C2)nc1-c1ccccc1F (stereo not drawn) [compound 92]	< 2	> 10	> 10
O=C(NC1CC1c1ccccc1)c1cnc(N2CCOCC2)nc1-c1ccccc1F (stereo not drawn) [compound 97]	> 10	> 10	> 10
O=C(c1cnc(N2CCSCC2)nc1-c1ccccc1F)N1Cc2ccccc2C1 [compound 206]	> 10	> 10	> 10
O=C(c1cnc(N2CCOCC2)nc1-c1ccccc1F)N(Cc1ccncc1)C1CC1 [compound 205]	> 10	> 10	> 10
COc1cccc(N(C(=O)c2cnc(N3CCCCC3)nc2-c2ccccc2Cl)C2CC2)c1 [compound 58]	> 10	> 10	> 10
CC1CCc2ccccc2N1C(=O)c1cnc(N2CCOCC2)nc1-c1ccccc1F (stereo not drawn) [compound 52]	2 to 10	2 to 10	> 10
O=C(c1cnc(N2CCSCC2)nc1-c1ccccc1F)N(Cc1cccc(-c2ccncc2)c1)C1CC1 [compound 204]	2 to 10	2 to 10	> 10
COc1cccc(N(C(=O)c2c(C)nc(N3CCCCC3)nc2-c2ccccc2F)C(C)C)c1 [compound 104]	> 10	2 to 10	> 10
Cc1cccc(CN(C(=O)c2cnc(N3CCOCC3)nc2-c2ccccc2F)C2CC2)c1 [compound 163]	2 to 10	> 10	> 10
CCNc1ncc(C(=O)N(Cc2ccccc2)C(C)C)c(-c2ccccc2F)n1 [compound 11]	> 10	> 10	> 10
COc1cccc(N(C(=O)c2cnc(N3CCSCC3)nc2-c2ccccc2F)C(C)C)c1 [compound 62]	2 to 10	2 to 10	> 10
CC(C)N(C(=O)c1cnc(N2CCOCC2)nc1-c1ccccc1F)c1cccc2ccccc12 [compound 76]	> 10	> 10	> 10
CC(C)N(Cc1ccccc1)C(=O)c1cnc(N2CCC(O)C2)nc1-c1ccccc1F (stereo not drawn) [compound 45]	> 10	> 10	> 10
CC(C)N(Cc1ccc(N2CCCC2)cc1)C(=O)c1cnc(N2CCCCC2)nc1-c1ccccc1F [compound 50]	2 to 10	> 10	> 10

Structure (SMILES)	IC50 (CaV2.2) [µM]	IC50 (NaV1.3) [µM]	IC50 (NaV1.8) [µM]
CC(C)N(C(=O)c1cnc(N2CCOCC2)nc1-c1ccccc1F)c1cccc(C(C)(C)C)c1 [compound 165]	> 10	2 to 10	> 10
O=C(c1cnc(N2CCSCC2)nc1-c1ccccc1F)N(Cc1ccc2c(c1)CCO2)C1CC1 [compound 30]	2 to 10	2 to 10	> 10
CC1Cc2ccccc2N1C(=O)c1cnc(N2CCOCC2)nc1-c1ccccc1F (stereo not drawn) [compound 150]	> 10	> 10	> 10
O=C(c1cnc(N2CCCCC2)nc1-c1ccccc1Cl)N(Cc1ccc2c(c1)CCO2)C1CC1 [compound 7]	2 to 10	2 to 10	> 10
CC(C)N(C(=O)c1cnc(N2CCC3CCCCC3C2)nc1-c1ccccc1F)c1cccc(C#N)c1 (stereo not drawn) [compound 54]	2 to 10	2 to 10	> 10
COc1ccc(CN(C(=O)c2cnc(N3CCCCC3)nc2-c2ccccc2Cl)C2CC2)cc1 [compound 36]	2 to 10	2 to 10	> 10
COc1cccc(N(C(=O)c2cnc(N3CCOCC3)nc2-c2ccccc2F)C2CCC2)c1 [compound 190]	> 10	2 to 10	> 10
CC(C)N(C(=O)c1cnc(N2CCCCC2)nc1-c1ccccc1Cl)c1ccccc1 [compound 82]	2 to 10	> 10	> 10
CC(C)N(Cc1ccccc1)C(=O)c1cnc(N2CCc3ccccc3C2)nc1-c1ccccc1F [compound 78]	< 2	2 to 10	2 to 10
COc1cccc(CN(C(=O)c2cnc(N3Cc4ccccc4C3)nc2-c2ccccc2F)C(C)C)c1 [compound 134]	< 2	2 to 10	> 10
O=C(c1cnc(N2CCSCC2)nc1-c1ccccc1F)N(Cc1ccccc1)C1CCCCC1 [compound 47]	2 to 10	2 to 10	> 10
COc1cccc(N(C(=O)c2cnc(N3CCC4CCCCC4C3)nc2-c2ccccc2F)C2CCC2)c1 (stereo not drawn) [compound 65]	2 to 10	> 10	> 10
O=C(c1cnc(N2CCOCC2)nc1-c1ccccc1F)N(Cc1ccccc1)C1CCCC1 [compound 159]	2 to 10	2 to 10	2 to 10
O=C(NC(CN1CCCC1)c1ccccc1)c1cnc(N2CCOCC2)nc1-c1ccccc1F (stereo not drawn) [compound 37]	> 10	> 10	> 10
CC(C)N(C(=O)c1cnc(N2CCCCC2)nc1-c1ccccc1F)c1ccc2c(c1)OCCO2 [compound 171]	2 to 10	2 to 10	> 10
O=C(c1cnc(N2CCOCC2)nc1-c1ccccc1F)N(Cc1ccc(F)cc1)C1CC1 [compound 128]	2 to 10	2 to 10	> 10
COc1cccc(N(C(=O)c2cnc(N3CCCCC3)nc2-c2ccccc2F)C2CCCC2)c1 [compound 42]	2 to 10	2 to 10	> 10
N#CCCN(Cc1ccccc1)C(=O)c1cnc(N2CCOCC2)nc1-c1ccccc1F [compound 75]	> 10	> 10	> 10
Cc1nc(N2CCOCC2)nc(-c2ccccc2F)c1C(=O)N(Cc1ccccc1)C1CCCC1 [compound 143]	2 to 10	2 to 10	2 to 10
CC(C)N(Cc1ccc2c(c1)OCO2)C(=O)c1cnc(N2CCCCC2)nc1-c1ccccc1F [compound 94]	< 2	< 2	2 to 10
O=C(NC1CCC1)c1cnc(N2CCOCC2)nc1-c1ccccc1F [compound 174]	> 10	> 10	> 10
Cc1cccc(CN(C(=O)c2c(C)nc(N3CCOCC3)nc2-c2ccccc2F)C2CC2)c1 [compound 10]	2 to 10	2 to 10	> 10
CN1CCN(c2ncc(C(=O)N(Cc3ccc(C(C)(C)C)cc3)C3CC3)c(-c3ccccc3F)n2)CC1 [compound 176]	2 to 10	> 10	> 10

— patent US8546414B2, “Ion channel modulators and methods of use” (Vertex Pharmaceuticals Incorporated, priority 2004, dated 2013)
